Reference: patent US6914045B2, “Glycopeptide antibiotics” (Wyeth Holdings Corporation, priority 2001, dated 2005)
≈ marks a conversion by molar mass, not a printed value.

Legend:
Enterococcus sp. = assay: in vitro antibacterial evaluation, MIC by broth dilution; type: cell-based; conditions: broth dilution, 18 hours at 35° C.
Outline: (§1)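 MIC = lowest antibiotic concentration preventing visible growth; inoculum 5×10^5 CFU/mL; drug range 64-0.06 μg/mL; Muller-Hinton II […]; NCCLS M7-A2 guidance.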

Staphylococcus sp. = assay: as above; type: cell-based; conditions: broth dilution, 18 hours at 35° C.
Outline: as §1

Streptococcus sp. = assay: as above; type: cell-based; conditions: broth dilution, 18 hours at 35° C.
Outline: as §1

[1] = anatomic pathology (histopathology of heart and kidney) in mice; type: in vivo; conditions: CD-1 mice, 20 mg/kg intravenously daily for 9 days, necropsy day 10, microscopic histopathology
Method: Samples of tissues from necropsied mice were formalin-fixed, paraffin-embedded, sectioned, stained with hematoxylin and eosin, and examined microscopically. Histopathologic findings were recorded. These findings were subjectively graded on a scale corresponding to slight, mild, moderate, marked and severe as compared to untreated controls.

Escherichia coli = assay: in vitro antibacterial evaluation, MIC by broth dilution; type: cell-based; conditions: 18 hours at 35° C.
Outline: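 Broth dilution MIC per NCCLS M7-A2 in Mueller-Hinton II medium, inoculum 5×10^5 CFU/mL, antibiotic range 64-0.06 μg/mL. MIC taken as lowest concentration inhibiting growth.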

MIC Enterococcus avium (GC 4558) (Enterococcus sp.; Enterococcus avium (GC 4558)): 128 mg/L (≈ 88.8 µM) | MIC Enterococcus faecalis (ATCC 29212) (Enterococcus sp.; Enterococcus faecalis (ATCC 29212)): >128 mg/L | MIC Enterococcus faecalis (GC 4552) (Enterococcus sp.; Enterococcus faecalis (GC 4552)): >128 mg/L | MIC Enterococcus faecalis (GC 4553) (Enterococcus sp.; Enterococcus faecalis (GC 4553)): 128 mg/L (≈ 88.8 µM) | MIC Enterococcus faecalis (GC 4554) (Enterococcus sp.; Enterococcus faecalis (GC 4554)): >128 mg/L | MIC Enterococcus faecalis (GC 6189) (Enterococcus sp.; Enterococcus faecalis (GC 6189)): >128 mg/L | MIC Enterococcus faecium (GC 2243) (Enterococcus sp.; Enterococcus faecium (GC 2243)): >128 mg/L | MIC Enterococcus faecium (GC 4556) (Enterococcus sp.; Enterococcus faecium (GC 4556)): >128 mg/L | MIC Enterococcus faecium (GC 4557) (Enterococcus sp.; Enterococcus faecium (GC 4557)): 128 mg/L (≈ 88.8 µM) | MIC Enterococcus avium (GC 4558) (Enterococcus sp.): 128 mg/L (≈ 88.8 µM) | MIC Enterococcus faecalis (ATCC 29212) (Enterococcus sp.): >128 mg/L | MIC Enterococcus faecalis (GC 2242) (Enterococcus sp.): >128 mg/L | MIC Enterococcus faecalis (GC 2691) (Enterococcus sp.): >128 mg/L | MIC Enterococcus faecalis (GC 3059) (Enterococcus sp.): >128 mg/L | MIC Enterococcus faecalis (GC 4552) (Enterococcus sp.): >128 mg/L | MIC Enterococcus faecalis (GC 4553) (Enterococcus sp.): 128 mg/L (≈ 88.8 µM) | MIC Enterococcus faecalis (GC 4554) (Enterococcus sp.): >128 mg/L | MIC Enterococcus faecalis (GC 6189) (Enterococcus sp.): >128 mg/L | MIC Enterococcus faecium (GC 2243) (Enterococcus sp.): >128 mg/L | MIC Enterococcus faecium (GC 4556) (Enterococcus sp.): >128 mg/L | MIC Enterococcus faecium (GC 4557) (Enterococcus sp.): 128 mg/L (≈ 88.8 µM) | MIC Enterococcus faecalis (GC 2242) (Enterococcus sp.; strain GC 2242): >128 mg/L | MIC Enterococcus faecalis (GC 2691) (Enterococcus sp.; strain GC 2691): >128 mg/L | MIC Enterococcus faecalis (GC 3059) (Enterococcus sp.; strain GC 3059): >128 mg/L | MIC Staphylococcus aureus (ATCC 29213) (Staphylococcus sp.; strain ATCC 29213): >128 mg/L | MIC Staphylococcus aureus (GC 1131) (Staphylococcus sp.; strain GC 1131): >128 mg/L | MIC Staphylococcus aureus (GC 3051) (Staphylococcus sp.; strain GC 3051): >128 mg/L | MIC Staphylococcus aureus (GC 3053) (Staphylococcus sp.; strain GC 3053): >128 mg/L | MIC Staphylococcus aureus (GC 4541) (Staphylococcus sp.; strain GC 4541): >128 mg/L | MIC Staphylococcus aureus (GC 4542) (Staphylococcus sp.; strain GC 4542): >128 mg/L | MIC Staphylococcus aureus-SMITH (GC 4543) (Staphylococcus sp.; strain GC 4543): >128 mg/L | MIC Staphylococcus aureus (GC 4544) (Staphylococcus sp.; strain GC 4544): >128 mg/L | MIC Staphylococcus aureus (GC 4545) (Staphylococcus sp.; strain GC 4545): >128 mg/L | MIC Coagulase Negative Staphylococcus (GC 4547) (Staphylococcus sp.; strain GC 4547): >128 mg/L | MIC Coagulase Negative Staphylococcus (GC 4548) (Staphylococcus sp.; strain GC 4548): >128 mg/L | MIC Coagulase Negative Staphylococcus (GC 4549) (Staphylococcus sp.; strain GC 4549): >128 mg/L | MIC Coagulase Negative Staphylococcus (GC 4551) (Staphylococcus sp.; strain GC 4551): >128 mg/L | MIC Coagulase Negative Staphylococcus (GC 6257) (Staphylococcus sp.; strain GC 6257): >128 mg/L | MIC Streptococcus agalactiae (GC 4564) (Streptococcus sp.): >128 mg/L | MIC Streptococcus pneumoniae (ATCC 6301) (Streptococcus sp.): 128 mg/L (≈ 88.8 µM) | MIC Streptococcus pneumoniae (GC 1894) (Streptococcus sp.): 64 mg/L (≈ 44.4 µM) | MIC Streptococcus pneumoniae (GC 4565) (Streptococcus sp.): 128 mg/L (≈ 88.8 µM) | MIC Streptococcus pyogenes (GC 4563) (Streptococcus sp.): >128 mg/L | MIC Streptococcus pneumoniae (ATCC 6301) (Streptococcus sp.; strain ATCC 6301): 128 mg/L (≈ 88.8 µM) | MIC Streptococcus pneumoniae (GC 1894) (Streptococcus sp.; strain GC 1894): 64 mg/L (≈ 44.4 µM) | MIC Streptococcus pyogenes (GC 4563) (Streptococcus sp.; strain GC 4563): >128 mg/L | MIC Streptococcus agalactiae (GC 4564) (Streptococcus sp.; strain GC 4564): >128 mg/L | MIC Streptococcus pneumoniae (GC 4565) (Streptococcus sp.; strain GC 4565): 128 mg/L (≈ 88.8 µM) | MIC Escherichia coli (ATCC 25922) (Escherichia coli): >128 mg/L | MIC Escherichia coli (GC 4559) (Escherichia coli): >128 mg/L | MIC Escherichia coli (GC 4560) (Escherichia coli): 16 mg/L (≈ 11.1 µM)
Compound: CC(c1ccccc1)C1NC(=O)CNC(=O)C(CO)NC(=O)C(C(O)C2CN(Cc3ccc(C(C)(C)C)cc3)C(=N)N2C2OC(CO)C(O)C(O)C2O)NC(=O)C(C(O)C2CNC(=N)N2)NC(=O)C(Cc2ccc(OC3OC(CO)C(OC4OC(CO)C(O)C(O)C4O)C(O)C3O)cc2)NC1=O (stereo not drawn) [Example 60, Cyclo[glycyl-β-methylphenylalanyl-O-(4-O-hexopyranosylhexopyranosyl)tyrosl-(2-iminoimidazolidin-4-yl)seryl-3-[1-(4-tert-butylbenzyl)-3-hexopyranosyl-2-iminoimidazolidin-4-yl]-serylseryl]]
MIC Staphylococcus haemolyticus (GC 4546) (Staphylococcus sp.; strain GC 4546): >128 mg/L | Anatomical Pathology (Day 10), Heart [1]: 0 | Anatomical Pathology (Day 10), Kidney [1]: 0
